Measurements reported in ChEMBL document CHEMBL3751752, “Total synthesis of a biotinylated rocaglate: Selective targeting of the translation factors eIF4AI/II” (Bioorg Med Chem Lett, 2016).
Active and inactive are the calls of the source. No cut-off for these calls is given here.

How the values were obtained:
[1] = target: Eukaryotic initiation factor 4A-I (Homo sapiens) (UniProt P60842); test: Inhibition of e1F4A1 (unknown origin) in rabbit reticulocyte assessed as capped-dependent translation incubated for 1 hr by dual glo luciferase assay
Chain of Eukaryotic initiation factor 4A-I (Homo sapiens) (P60842 whole entry): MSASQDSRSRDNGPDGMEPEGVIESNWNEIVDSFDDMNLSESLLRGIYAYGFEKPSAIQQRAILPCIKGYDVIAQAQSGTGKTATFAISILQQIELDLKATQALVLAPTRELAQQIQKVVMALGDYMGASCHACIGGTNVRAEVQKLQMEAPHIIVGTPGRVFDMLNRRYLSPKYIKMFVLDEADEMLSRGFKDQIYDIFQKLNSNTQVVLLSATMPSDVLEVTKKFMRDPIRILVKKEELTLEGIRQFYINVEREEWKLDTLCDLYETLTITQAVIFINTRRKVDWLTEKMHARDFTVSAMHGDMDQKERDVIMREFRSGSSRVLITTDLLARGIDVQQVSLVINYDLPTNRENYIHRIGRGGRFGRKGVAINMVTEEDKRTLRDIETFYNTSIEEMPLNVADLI

[2] = target: Eukaryotic initiation factor 4A-II (Mus musculus) (UniProt P10630); test: Binding affinity to eIF4A2 in mouse embryonic fibroblasts at 20 uM by streptavidin pulldown assay
Chain of Eukaryotic initiation factor 4A-II (Mus musculus) (P10630 whole entry): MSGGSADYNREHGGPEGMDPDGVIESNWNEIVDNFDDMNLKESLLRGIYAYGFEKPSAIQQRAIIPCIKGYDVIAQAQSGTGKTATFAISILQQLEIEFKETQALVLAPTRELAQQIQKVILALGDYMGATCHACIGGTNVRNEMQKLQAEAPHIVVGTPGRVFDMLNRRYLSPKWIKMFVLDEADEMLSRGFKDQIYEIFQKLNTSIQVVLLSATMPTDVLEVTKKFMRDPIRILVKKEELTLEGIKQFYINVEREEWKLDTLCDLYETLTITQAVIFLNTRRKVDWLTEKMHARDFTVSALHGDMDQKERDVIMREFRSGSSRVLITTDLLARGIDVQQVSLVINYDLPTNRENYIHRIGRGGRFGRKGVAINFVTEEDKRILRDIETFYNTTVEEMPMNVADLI

[3] = target: Eukaryotic initiation factor 4A-I (Mus musculus) (UniProt P60843); test: Binding affinity to eIF4A1 in mouse embryonic fibroblasts at 20 uM by streptavidin pulldown assay
Chain of Eukaryotic initiation factor 4A-I (Mus musculus) (P60843 whole entry): as the sequence (P60842 whole entry) above

[4] = target: Eukaryotic initiation factor 4A-I (Mus musculus) (UniProt P60843); test: Binding affinity to eIF4A1 in mouse embryonic fibroblasts by Western blot method
[5] = target: Eukaryotic initiation factor 4A-III (Mus musculus) (UniProt Q91VC3); test: Binding affinity to eIF4A3 in mouse embryonic fibroblasts by Western blot method
Chain of Eukaryotic initiation factor 4A-III (Mus musculus) (Q91VC3 whole entry): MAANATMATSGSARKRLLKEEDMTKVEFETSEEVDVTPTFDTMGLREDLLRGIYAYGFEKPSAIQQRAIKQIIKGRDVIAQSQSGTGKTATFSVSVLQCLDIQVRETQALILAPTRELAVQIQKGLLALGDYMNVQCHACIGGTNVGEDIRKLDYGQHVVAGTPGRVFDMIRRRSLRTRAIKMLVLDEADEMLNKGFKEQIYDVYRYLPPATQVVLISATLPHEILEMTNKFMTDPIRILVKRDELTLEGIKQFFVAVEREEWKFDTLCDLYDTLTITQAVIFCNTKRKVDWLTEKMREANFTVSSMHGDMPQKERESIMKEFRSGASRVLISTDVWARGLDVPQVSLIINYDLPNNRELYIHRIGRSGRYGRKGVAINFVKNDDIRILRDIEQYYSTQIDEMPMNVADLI

[6] = target: Eukaryotic initiation factor 4A-II (Mus musculus) (UniProt P10630); test: Binding affinity to eIF4A2 in mouse embryonic fibroblasts by Western blot method
[7] = target: Eukaryotic translation initiation factor 4E (Mus musculus) (UniProt P63073); test: Binding affinity to eIF4E in mouse embryonic fibroblasts by Western blot method
Chain of Eukaryotic translation initiation factor 4E (Mus musculus) (P63073 whole entry): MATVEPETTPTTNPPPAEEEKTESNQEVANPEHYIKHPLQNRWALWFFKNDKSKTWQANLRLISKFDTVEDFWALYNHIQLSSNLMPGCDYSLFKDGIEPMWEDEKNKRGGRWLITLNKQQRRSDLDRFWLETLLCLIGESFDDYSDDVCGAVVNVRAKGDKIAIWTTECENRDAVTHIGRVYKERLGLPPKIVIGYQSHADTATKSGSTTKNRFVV

[8] = target: ATP-dependent RNA helicase DDX3X (Mus musculus) (UniProt Q62167); test: Binding affinity to DDX3 in mouse embryonic fibroblasts by Western blot method
Chain of ATP-dependent RNA helicase DDX3X (Mus musculus) (Q62167 whole entry): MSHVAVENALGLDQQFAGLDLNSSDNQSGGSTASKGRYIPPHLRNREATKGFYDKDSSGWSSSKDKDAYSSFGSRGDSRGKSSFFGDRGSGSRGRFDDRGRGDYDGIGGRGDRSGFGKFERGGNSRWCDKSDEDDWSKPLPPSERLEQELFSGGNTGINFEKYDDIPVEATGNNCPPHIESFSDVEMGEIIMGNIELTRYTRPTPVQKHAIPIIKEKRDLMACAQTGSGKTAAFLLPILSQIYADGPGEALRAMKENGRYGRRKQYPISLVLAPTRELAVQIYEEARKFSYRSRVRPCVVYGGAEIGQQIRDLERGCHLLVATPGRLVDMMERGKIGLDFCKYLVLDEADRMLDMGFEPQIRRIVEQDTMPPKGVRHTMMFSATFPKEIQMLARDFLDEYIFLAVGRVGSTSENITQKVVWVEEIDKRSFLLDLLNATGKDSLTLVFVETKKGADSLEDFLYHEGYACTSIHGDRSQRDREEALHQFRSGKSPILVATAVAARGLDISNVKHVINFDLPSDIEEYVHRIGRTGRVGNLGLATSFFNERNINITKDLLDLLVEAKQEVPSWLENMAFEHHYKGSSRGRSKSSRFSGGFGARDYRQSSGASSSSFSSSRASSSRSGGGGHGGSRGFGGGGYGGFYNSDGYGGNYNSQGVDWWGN

[9] = target: T1, Prohibitin 1 (Mus musculus) (UniProt P67778); test: Binding affinity to prohibitin in mouse embryonic fibroblasts by Western blot method
T1 sequence (whole entry): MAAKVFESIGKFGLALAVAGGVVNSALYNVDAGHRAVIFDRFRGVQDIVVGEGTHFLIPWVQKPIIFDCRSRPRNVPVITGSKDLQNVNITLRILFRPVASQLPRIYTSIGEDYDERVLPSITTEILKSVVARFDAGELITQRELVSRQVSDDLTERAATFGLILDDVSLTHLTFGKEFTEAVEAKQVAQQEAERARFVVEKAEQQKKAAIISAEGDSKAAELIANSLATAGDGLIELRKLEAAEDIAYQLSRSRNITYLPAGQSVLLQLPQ

| SMILES | inhibition [1] | Activity [2] | Activity [3] | Activity [4] | Activity [5] | Activity [6] | Activity [7] | Activity [8] | Activity [9] |
| --- | --- | --- | --- | --- | --- | --- | --- | --- | --- |
| C#CCNC(=O)[C@H]1[C@@H](O)[C@@]2(O)c3c(OC)cc(OC)cc3O[C@@]2(c2ccc(OC)cc2)[C@@H]1c1ccccc1 | Active |  |  |  |  |  |  |  |  |
| COC(=O)[C@H]1[C@@H](O)[C@@]2(O)c3c(OC)cc(O[C@@H]4O[C@@H]([C@@H](O)CO)CO[C@H]4OC)cc3O[C@@]2(c2ccc(OC)cc2)[C@@H]1c1ccccc1 | Active | Active | Active |  |  |  |  |  |  |
| COc1ccc([C@@]23Oc4cc(OC)cc(OC)c4[C@]2(O)[C@H](O)[C@H](C(=O)O)[C@H]3c2ccccc2)cc1 | Active |  |  |  |  |  |  |  |  |
| COc1ccc([C@@]23Oc4cc(OC)cc(OC)c4[C@]2(O)[C@H](O)[C@H](C(=O)NCc2cn(CCCOCCOCCOCCCNC(=O)CCCC[C@@H]4SC[C@@H]5NC(=O)N[C@@H]54)nn2)[C@H]3c2ccccc2)cc1 | Active | Active | Active | Active | inactive | Active | inactive | inactive | inactive |
| COC(=O)[C@H]1[C@@H](O)[C@@]2(O)c3c(OC)cc(OC)cc3O[C@@]2(c2ccc(OC)cc2)[C@@H]1c1ccccc1 | Active | Active | Active |  |  |  |  |  |  |
| COc1ccc([C@@]23Oc4cc(O[C@@H]5O[C@@H]([C@@H](O)CO)CO[C@H]5OC)cc(OC)c4[C@]2(O)[C@H](O)[C@H](C(=O)NCc2cn(CCCOCCOCCOCCCNC(=O)CCCC[C@@H]4SC[C@@H]5NC(=O)N[C@@H]54)nn2)[C@H]3c2ccccc2)cc1 |  | Active | Active | Active | inactive | Active | inactive | inactive | inactive |
| O=C(O)CCCC[C@@H]1SC[C@@H]2NC(=O)N[C@@H]21 |  | inactive | inactive |  |  |  |  |  |  |
| COc1ccc([C@@]23Oc4cc(OC)cc(OC)c4[C@]2(O)[C@H](O)[C@H](C(=O)N(C)C)[C@H]3c2ccccc2)cc1 |  | Active | Active |  |  |  |  |  |  |
